Experimental data from ChEMBL document CHEMBL1909046, “DrugMatrix in vitro pharmacology data”.
Where a SMILES comes first, the peptide text is derived from it. Bridges are numbered along the chain shown (N, C = ends). [ ]: non-standard residue; d: D form. The star is where a group is joined. Threoninol(2S,3R) = C[C@@H](O)[C@H](CO)N*

What was measured:
[1] = DRUGMATRIX: Serotonin (5-Hydroxytryptamine) 5-HT3 radioligand binding (ligand: [3H] GR-65630); format: cell membranes, Membrane; settings: hek293, Not Active = under 50% inhibition at 10 µM
[2] = DRUGMATRIX: GABAA, Chloride Channel, TBOB radioligand binding (ligand: [3H] TBOB); format: cell membranes, Rattus norvegicus, Wistar, Cerebral cortex, Membrane; settings: Not Active = under 50% inhibition at 10 µM
[3] = DRUGMATRIX: Interleukin IL-1 radioligand binding (ligand: [125I] interleukin 1beta); format: cell membranes, Membrane; settings: nih3t3; Not Active = under 50% inhibition at 10 µM
[4] = target: T1, Muscarinic acetylcholine receptor M5 (Homo sapiens, UniProt P08912); format: cell membranes, CHO-K1, Membrane; settings: cho-k1; further: in other assays of this panel Not Active means under 50% inhibition at 10 µM
T1 sequence (P08912 whole entry): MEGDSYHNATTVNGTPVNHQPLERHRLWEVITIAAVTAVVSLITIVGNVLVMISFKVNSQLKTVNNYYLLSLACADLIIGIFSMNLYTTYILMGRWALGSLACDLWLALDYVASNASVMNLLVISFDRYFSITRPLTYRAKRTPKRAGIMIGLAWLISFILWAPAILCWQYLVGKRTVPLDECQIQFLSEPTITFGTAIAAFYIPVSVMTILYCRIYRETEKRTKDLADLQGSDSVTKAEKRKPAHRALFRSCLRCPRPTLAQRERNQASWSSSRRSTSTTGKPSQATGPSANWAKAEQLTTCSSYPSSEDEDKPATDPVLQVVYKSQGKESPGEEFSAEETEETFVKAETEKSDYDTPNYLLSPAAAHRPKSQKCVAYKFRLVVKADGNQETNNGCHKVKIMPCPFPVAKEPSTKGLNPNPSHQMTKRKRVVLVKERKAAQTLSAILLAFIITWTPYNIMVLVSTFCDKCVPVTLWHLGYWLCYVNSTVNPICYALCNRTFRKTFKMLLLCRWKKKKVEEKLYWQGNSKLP

[5] = DRUGMATRIX: Nicotinic Acetylcholine radioligand binding (ligand: [125I] Epibatidine); format: cell membranes, Membrane; settings: imr-32; Not Active = under 50% inhibition at 10 µM
[6] = DRUGMATRIX: Purinergic P2X radioligand binding (ligand: [3H] alpha, beta-Methylene-ATP); format: cell membranes, Oryctolagus cuniculus, New Zealand albino, Urinary bladder, Membrane; settings: Not Active = under 50% inhibition at 10 µM
[7] = target: Adenosine receptor A2a (Homo sapiens, UniProt P29274); experiment: DRUGMATRIX: Adenosine A2A radioligand binding (ligand: […]); format: cell membranes, HEK293, Membrane; settings: hek293; Not Active = under 50% inhibition at 10 µM
Chain of Adenosine receptor A2a (P29274 whole entry): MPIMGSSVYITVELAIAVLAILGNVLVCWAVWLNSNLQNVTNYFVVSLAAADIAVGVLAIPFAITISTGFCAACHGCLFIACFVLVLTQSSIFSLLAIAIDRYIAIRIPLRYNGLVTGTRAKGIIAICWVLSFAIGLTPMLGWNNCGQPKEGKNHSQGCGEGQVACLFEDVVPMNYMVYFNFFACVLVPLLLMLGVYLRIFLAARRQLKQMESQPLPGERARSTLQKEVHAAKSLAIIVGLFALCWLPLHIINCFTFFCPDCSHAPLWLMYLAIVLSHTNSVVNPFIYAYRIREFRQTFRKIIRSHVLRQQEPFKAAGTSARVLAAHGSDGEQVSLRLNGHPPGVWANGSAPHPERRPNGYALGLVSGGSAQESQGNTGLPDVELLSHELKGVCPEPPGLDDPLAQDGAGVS

Compound	IC50 [1]	Ki [1]	IC50 [2]	Ki [2]	IC50 [3]	Ki [3]	IC50 [4]	IC50 [5]	Ki [5]	IC50 [6]	Ki [6]	IC50 [7]	Ki [4]	Ki [7]	IC50 ([1]; read-out: IC50) [nM]	Ki ([1]; read-out: Ki) [nM]
COc1ccccc1C(=O)N1CCC(Cc2ccccc2)CC1	Not Active	Not Active	Not Active	Not Active	Not Active	Not Active	Not Active	Not Active	Not Active	Not Active	Not Active	Not Active				
Cc1ccccc1C(=O)N1CCC(Cc2ccccc2)CC1	Not Active	Not Active	Not Active	Not Active	Not Active	Not Active	Not Active	Not Active	Not Active	Not Active	Not Active	Not Active				
O=C1CC[C@H](N2C(=O)c3ccccc3C2=O)C(=O)N1	Not Active	Not Active	Not Active	Not Active	Not Active	Not Active	Not Active	Not Active	Not Active	Not Active	Not Active	Not Active				
N=C(Nc1ccccc1)Nc1ccccc1	Not Active	Not Active	Not Active	Not Active	Not Active	Not Active	Not Active	Not Active	Not Active	Not Active	Not Active	Not Active				
C[C@@H](O)[C@H](CO)NC(=O)[C@@H]1CSSC[C@H](NC(=O)[C@H](N)Cc2ccccc2)C(=O)N[C@@H](Cc2ccccc2)C(=O)N[C@H](Cc2c[nH]c3ccccc23)C(=O)N[C@@H](CCCCN)C(=O)N[C@@H]([C@@H](C)O)C(=O)N1 (H-[dF]CF[dW]KTC-{Threoninol(2S,3R)}; disulfide 2-7)	Not Active	Not Active	Not Active	Not Active	Not Active	Not Active	Not Active	Not Active	Not Active	Not Active	Not Active	Not Active				
S=C=Nc1cccc2ccccc12 [1-NAPHTHYLISOTHIOCYANATE]	Not Active	Not Active	Not Active	Not Active	Not Active	Not Active	Not Active	Not Active	Not Active	Not Active	Not Active	Not Active				
C[C@](O)(CS(=O)(=O)c1ccc(F)cc1)C(=O)Nc1ccc(C#N)c(C(F)(F)F)c1 [(R)-BICALUTAMIDE]	Not Active	Not Active	Not Active	Not Active	Not Active	Not Active	Not Active	Not Active	Not Active	Not Active	Not Active	Not Active				
CCCC(=O)Nc1ccc(OCC(O)CNC(C)C)c(C(C)=O)c1 (stereo not drawn) [ACEBUTOLOL]	Not Active	Not Active	Not Active	Not Active	Not Active	Not Active	Not Active	Not Active	Not Active	Not Active	Not Active	Not Active				
CC(=O)Nc1ccc(O)cc1 [ACETAMINOPHEN]	Not Active	Not Active	Not Active	Not Active	Not Active	Not Active	Not Active	Not Active	Not Active	Not Active	Not Active	Not Active				
COc1cc2c(c3oc(=O)c4c(c13)CCC4=O)[C@@H]1C=CO[C@@H]1O2 [AFLATOXIN]	Not Active	Not Active	Not Active	Not Active	Not Active	Not Active	Not Active	Not Active	Not Active	Not Active	Not Active	Not Active	Not Active	Not Active		
N=C(N)NC(=O)c1nc(Cl)c(N)nc1N [AMILORIDE]	Not Active	Not Active	Not Active	Not Active	Not Active	Not Active	Not Active	Not Active	Not Active	Not Active	Not Active	Not Active				
Cc1cc(=O)n(-c2ccccc2)n1C [ANTIPYRINE]	Not Active	Not Active	Not Active	Not Active	Not Active	Not Active	Not Active	Not Active	Not Active	Not Active	Not Active	Not Active				
CN1C(=O)COc2c(C(=O)NC3CN4CCC3CC4)cc(Cl)cc21 (stereo not drawn) [AZASETRON]			Not Active	Not Active	Not Active	Not Active	Not Active	Not Active	Not Active	Not Active	Not Active	Not Active			13	2.89
C[C@H]1C[C@H]2[C@@H]3CCC4=CC(=O)C=C[C@]4(C)[C@@]3(Cl)[C@@H](O)C[C@]2(C)[C@@]1(O)C(=O)CO [BECLOMETHASONE]	Not Active	Not Active	Not Active	Not Active	Not Active	Not Active	Not Active	Not Active	Not Active	Not Active	Not Active	Not Active				
CCOC(=O)[C@H](CCc1ccccc1)N[C@H]1CCc2ccccc2N(CC(=O)O)C1=O [BENAZEPRIL]	Not Active	Not Active	Not Active	Not Active	Not Active	Not Active	Not Active	Not Active	Not Active	Not Active	Not Active	Not Active				
Nc1c(CC(=O)O)cccc1C(=O)c1ccc(Br)cc1 [BROMFENAC]	Not Active	Not Active	Not Active	Not Active	Not Active	Not Active	Not Active	Not Active	Not Active	Not Active	Not Active	Not Active				
CCCCN1CCCCC1C(=O)Nc1c(C)cccc1C.Cl (stereo not drawn) [BUPIVACAINE HYDROCHLORIDE]	Not Active	Not Active	Not Active	Not Active	Not Active	Not Active	Not Active	Not Active	Not Active	Not Active	Not Active	Not Active				
O=C1CC2(CCCC2)CC(=O)N1CCCCN1CCN(c2ncccn2)CC1 [BUSPIRONE]	Not Active	Not Active	Not Active	Not Active	Not Active	Not Active	Not Active	Not Active	Not Active	Not Active	Not Active	Not Active				
C[C@@]12C(=O)OC(=O)[C@]1(C)[C@H]1CC[C@@H]2O1 [CANTHARIDIN]	Not Active	Not Active	Not Active	Not Active	Not Active	Not Active	Not Active	Not Active	Not Active	Not Active	Not Active	Not Active				
O=NN(CCCl)C(=O)NCCCl [CARMUSTINE]	Not Active	Not Active	Not Active	Not Active	Not Active	Not Active	Not Active	Not Active	Not Active	Not Active	Not Active	Not Active				
C/C=C/C[C@@H](C)[C@@H](O)[C@H]1C(=O)N[C@@H](CC)C(=O)N(C)CC(=O)N(C)[C@@H](CC(C)C)C(=O)N[C@@H](C(C)C)C(=O)N(C)[C@@H](CC(C)C)C(=O)N[C@@H](C)C(=O)N[C@H](C)C(=O)N(C)[C@@H](CC(C)C)C(=O)N(C)[C@@H](CC(C)C)C(=O)N(C)[C@@H](C(C)C)C(=O)N1C [CYCLOSPORINE]	Not Active	Not Active			Not Active	Not Active	Not Active	Not Active	Not Active	Not Active	Not Active	Not Active				
OC(CCN1CCCCC1)(c1ccccc1)C1CCCCC1 (stereo not drawn) [TRIHEXYPHENIDYL]	Not Active	Not Active	Not Active	Not Active	Not Active	Not Active		Not Active	Not Active	Not Active	Not Active	Not Active				
